Measured values published in ChEMBL document CHEMBL3044719, “Synthesis of pyrazole-based 1,5-diaryl compounds as potent anti-inflammatory agents” (2012).

Key:
[1] = tested on: Rattus norvegicus; experiment: Anti-inflammatory activity in Rattus norvegicus Wistar albino (rat) assessed as inhibition of carrageenan-induced paw edema after 90 min (reference value: 38.7%)
[2] = tested on: Rattus norvegicus; experiment: Anti-inflammatory activity in Rattus norvegicus Wistar albino (rat) assessed as inhibition of carrageenan-induced paw edema after 30 min (reference value: 30.1%); type: functional
[3] = tested on: Rattus norvegicus; experiment: Anti-inflammatory activity in Rattus norvegicus Wistar albino (rat) assessed as growth of carrageenan-induced paw edema after 90 min (reference value: 1.36 +/- 0.070%); type: functional
[4] = tested on: Rattus norvegicus; experiment: Anti-inflammatory activity in Rattus norvegicus Wistar albino (rat) assessed as growth of carrageenan-induced paw edema after 30 min (reference value: 1.27 +/- 0.043%); type: functional
[5] = tested on: Rattus norvegicus; experiment: Anti-inflammatory activity in Rattus norvegicus Wistar albino (rat) assessed as inhibition of carrageenan-induced paw edema after 180 min (reference value: 22.3%); type: functional

Structure (SMILES)	inhibition (INH) [1] [%]	inhibition (INH) [2] [%]	Activity [3] [%]	Activity [4] [%]	inhibition (INH) [5] [%]
COC(=O)c1c(C)nn(-c2ccccc2)c1OCCCOc1c(C(=O)OC)c(C)nn1-c1ccccc1	24.4	15.1	1.49	1.34	17.9
COC(=O)c1c(C)nn(-c2ccccc2)c1OCCCN1C(=O)c2ccccc2C1=O	4.8	5.9	1.39	1.25	1.7
CCOC(=O)c1c(C)nn(-c2ccccc2)c1OCCCN1C(=O)c2ccccc2C1=O	44.7	38.9	1.18	1.11	39.3
COC(=O)c1c(C)nn(-c2ccccc2)c1OCCCn1c(C)cc(C)c(C#N)c1=O	29.7	17.6	1.03	0.94	18.5
CCOC(=O)c1c(C)nn(-c2ccccc2)c1OCCCn1c(C)cc(C)c(C#N)c1=O	28.5	22.4	1.16	1.05	20.4
COC(=O)c1c(C)nn(-c2ccccc2)c1OCCCOc1nc(C)cc(C)c1C#N	28.7	16.8	0.92	0.81	24.9
CCOC(=O)c1c(C)nn(-c2ccccc2)c1OCCCOc1nc(C)cc(C)c1C#N	24.6	21.4	1.18	1.22	16.8
CS(=O)(=O)Nc1ccc([N+](=O)[O-])cc1Oc1ccccc1 [NIMESULIDE]	7.9	10.8	1.25	1.29	2.54
